Laboratory results reported in US20240254510A1, “METHODS FOR GENERATING MECHANICALLY-RESPONSIVE CELLS AND USES THEREOF” (Washington University, priority 2021, published 2024).

Columns and labels:
TRPV4 [1] = assay: RNA-sequencing of tissue engineered cartilage: mechanical loading, GSK101, IL-1α; type: cell-based; conditions: GSK101 TRPV4 activation, 24 hour time course
Protocol: RNA-sequencing was performed to assess mechanically-sensitive gene targets that are distinct from a cellular inflammation response. […] Targets of interest were selected as targets that were shared between stimulation to mechanical loading and GSK101 agonist activation of TRPV4 but not stimulated by IL-1α inflammation.

TRPV4 [2] = biological target: T1, TRPV4 (Sus scrofa, UniProt B3VP30); assay: IL-1Ra production by mechanogenetic cartilage constructs (ELISA); type: cell-based, porcine; conditions: NFKBr-IL1Ra tissues, 1 nM GSK101 3 hours/day over 5 days vs DMSO
T1 construct: endogenous in cells; host or cells: primary porcine articular chondrocytes (femurs of pigs from a local abattoir)
T1 sequence (B3VP30 1-871): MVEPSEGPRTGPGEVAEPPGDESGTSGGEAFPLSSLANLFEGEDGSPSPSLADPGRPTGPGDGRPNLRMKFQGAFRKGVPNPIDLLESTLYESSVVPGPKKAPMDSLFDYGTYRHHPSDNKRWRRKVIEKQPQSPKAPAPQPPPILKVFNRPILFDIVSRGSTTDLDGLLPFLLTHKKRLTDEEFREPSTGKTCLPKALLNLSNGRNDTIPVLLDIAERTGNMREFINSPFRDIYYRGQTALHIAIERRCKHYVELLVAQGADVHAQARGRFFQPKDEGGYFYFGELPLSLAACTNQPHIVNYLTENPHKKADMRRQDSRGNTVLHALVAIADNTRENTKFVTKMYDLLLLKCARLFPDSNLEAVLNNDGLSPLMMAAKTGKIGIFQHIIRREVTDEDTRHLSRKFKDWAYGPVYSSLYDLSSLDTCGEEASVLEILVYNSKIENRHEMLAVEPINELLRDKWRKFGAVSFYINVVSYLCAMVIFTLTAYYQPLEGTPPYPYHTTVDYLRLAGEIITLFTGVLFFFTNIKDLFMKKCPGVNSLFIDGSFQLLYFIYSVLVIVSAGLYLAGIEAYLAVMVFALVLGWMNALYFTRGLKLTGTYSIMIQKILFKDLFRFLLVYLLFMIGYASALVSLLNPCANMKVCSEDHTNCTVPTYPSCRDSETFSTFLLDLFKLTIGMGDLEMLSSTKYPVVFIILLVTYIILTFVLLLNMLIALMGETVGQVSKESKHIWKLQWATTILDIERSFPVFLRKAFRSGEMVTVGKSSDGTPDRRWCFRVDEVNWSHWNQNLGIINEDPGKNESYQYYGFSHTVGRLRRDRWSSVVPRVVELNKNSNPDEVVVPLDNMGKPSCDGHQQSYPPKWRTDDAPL
From the text: Synthetic mechanogenetic circuits respond to TRPV4 activation to drive transgene expression: TRPV4 activation in response to mechanical loading up-regulates a diverse group of targeted genes. On the basis of the TRPV4-activated signaling pathway, activation of the nuclear factor κ light chain enhancer of activated B cells (NF-κB) pathway was identified and up-regulation of the prostaglandin-endoperoxide synthase 2 (PTGS2) gene as two distinct avenues to construct TRPV4-responsive synthetic mechanogenetic gene circuits. […]
Osmotic stimulation—For calcium imaging studies, osmotic loading media were prepared using Hanks' balanced salt solution medium (Gibco). […] These media were titrated to hypo-osmotic media by adding distilled water and measured with a freezing point osmometer (Osmette 2007; Precision Systems). […]
Mechanogenetic circuit testing outcome measures: Assessing mechanogenetic tissue construct activation in IL-1Ra-producing constructs was measured with an enzyme-linked immunosorbent assay for mouse IL-1Ra (R&D Systems) according to the manufacturer's protocols. […]

TRPV4 [3] = biological target: T1, TRPV4; assay: Microarray transcriptomic profile of engineered cartilage after mechanical loading or GSK101; type: cell-based, porcine
From the text: TRPV4 activation in chondrocytes induces transient anabolic and inflammatory signaling networks: Next, it was sought to understand the time course of specific downstream signaling pathways and GRNs regulated by mechanical activation of TRPV4 using microarray analysis. Because TRPV4 is a multimodal channel, downstream signaling is likely dependent on the activation mode as well as cell and tissue type. For these studies, primary porcine chondrocytes were cast in agarose to create engineered cartilage constructs and subjected to either compressive mechanical loading [10% sinusoidal peak-to-peak strain at 1 Hz for 3 hours as described previously] or pharmacologic stimulation with the TRPV4 agonist GSK101 (1 nM for 3 hours), or left unloaded (free-swelling controls), and measured the transcriptional activity at 0, 3, 12, and 20 hours following an initial round of stimulation and then at 24 and 72 hours after additional daily bouts of mechanical loading or GSK101 (n=3 per condition per time point; FIG. 3A). […] Up-regulation of these targets was immediate and subsided quickly, with transcript levels returning to baseline 12 to 20 hours after activation.
Microarray collection and analysis: After a 14-day preculture, engineered cartilage constructs (04 mm×2.25 mm) were stimulated under 10% compressive loading or 1 nM GSK101 for 3 hours per day for 3 days. Unstimulated controls (free-swelling) constructs were cultured under identical conditions. Immediately after stimulation, constructs were washed and then fed with culture medium. Constructs were snap-frozen in liquid N2 at 0, 3, 6, 12, 20, 24, and 72 hours after initial stimulation. Total RNA was extracted from the constructs using a pestle homogenizer and the Norgen Biotek RNA/protein purification plus kit. RNA quantity and quality were assessed with NanoDrop (Thermo Fisher Scientific) and the Agilent Bioanalyzer. Total RNA was processed using the Ambion WT expression labeling kit and the Porcine Gene 1.0 ST Array (Affymetrix). […]

Piezo1 = assay: RNA-seq of tissue engineered cartilage after 80% strain or Yoda1 stimulation; type: cell-based; conditions: 80% strain or Yoda1, RNA-seq
Protocol: Tissue engineered cartilage tissues were either mechanically loaded to 80% strain or stimulated with the Piezo1 agonist Yoda1. Control tissues (FS group) were cultured in vehicle control media and left under free-swelling (non loaded) conditions. RNA-seq was used to assess the transcriptomic regulation to high mechanical loading or Yoda1-stimulation.
Volcano plot projections of gene targets that are differentially regulated by mechanical loading to 80% strain (FIG. 9 left graph) or Yoda1 stimulation (FIG. 9 right graph) display a range of targets that are regulated by Piezo1 stimulation (targets highlighted in red are |LFC|>1 and FDR (padj)<0.05).

SMILES | regulation of FGF1, PMEPA1 and snora70 (TRPV4 [1]) | circuit response to pharmacologic activation of TRPV4 (TRPV4 [2]) | genes commonly responsive to both mechanical loading and pharmacologic activation of TRPV4 (TRPV4 [3]; 0, 24 and 72 hours) [genes] | transcripts repeatedly responsive to GSK101 supplementation (TRPV4 [3]; 0, 24 and 72 hours, daily bouts of 1 nM GSK101) [transcripts] | transcripts up-regulated under both mechanical loading and pharmacologic stimulation (TRPV4 [3]; first 20 hours after initial stimulation, GSK101 1 nM for 3 hours, vs unloaded controls) [transcripts] | gene targets similarly regulated by mechanical loading and Yoda1 stimulation (Piezo1)
CC(C)C[C@H](NC(=O)c1cc2ccccc2s1)C(=O)N1CCN(C(=O)[C@H](CO)NS(=O)(=O)c2ccc(Cl)cc2Cl)CC1 [GSK101] | significantly upregulated | activated the NFKBr-IL1Ra circuit | 15 | 112 | 43 | 
Clc1cccc(Cl)c1CSc1nnc(-c2cnccn2)s1 [Yoda1] |  |  |  |  |  | ADAMTS1, IGSF9B, PTGS2, NR4A2, LOC100512181, NR4A1, INHBA, and CSRNP2
